Measurements from the NIST ThermoML archive (doi:10.1021/acs.jced.9b00474).

Legend:
[1] = xn = mol fraction of the nth substance listed; conditions: 100 kPa, Liquid, x2 = 0.334; for mass density: Vibrating tube method; for viscosity: Cone and plate viscometry
[2] = Crystal 2; visual observation
[3] = Molar enthalpy of transition or fusion; conditions: Crystal 2; DSC

NC(N)=O [urea] + C[N+](C)(C)CCO.[Cl-]
[1]
Conditions	mass density [kg/m3]	viscosity [mPa·s]
293.15 K	1203	–
293.25 K	–	2110
299.45 K	–	1286
303.15 K	1197	–
305.85 K	–	725
312.15 K	–	432
313.15 K	1192	–
318.35 K	–	265
323.15 K	1186	–
324.55 K	–	170
330.95 K	–	116
333.15 K	1180	–
337.15 K	–	83
343.15 K	1175	–
343.35 K	–	61
349.55 K	–	46
353.15 K	1170	–
355.85 K	–	36
362.05 K	–	27
363.15 K	1164	–
368.25 K	–	21

C[N+](C)(C)CCO.[Cl-] [choline chloride]
Conditions	Molar enthalpy of transition or fusion [kJ/mol]	Triple point temperature [K]
[2]	–	351.62
[3]	7.32	–
